Laboratory results from paper PMC2361651 (British Journal of Cancer, 2005).
Like-named read-outs stand apart in the source and are kept apart here.

Assay: Plasma pharmacokinetics of SU5416 and metabolites in Phase I patients (HPLC UV)
Type: in vivo, human
Details: for Vd / AUC(0-t) / clearance / half-life / Cmax / AUC: human; for half-life: read-out: T1/2λz (converted); for Cmax: read-out: Cmax
Experimental: Samples were taken prior to treatment infusion, 15 min into the infusion, at completion of the infusion and then at 5, 10, 20, 30, 45, 60, 120 and 240 min following the infusion. […] At the designated times, 4.0 ml of blood were collected into a lithium heparin tube, gently inverted and placed on ice to maintain the sample at 2–8°C. All samples were immediately centrifuged at 6000 r.p.m. at 4°C for 10 min, the supernatant divided between two 1.5 ml Nalgene cryovials and snap frozen in liquid nitrogen. Separated plasma samples were subsequently stored at −70°C until analysis.
Pharmacokinetic analysis was performed using a fully validated HPLC UV method ([Stopeck et al, 2002]). Plasma samples, standards (25–2000 ng ml^−1) and quality controls spiked with internal standards were extracted with acetonitrile. Following centrifugation, drying and reconstitution in 200 μl mobile phase, 20 μl were analysed by HPLC UV. Chromatography was carried out using a C18 analytical column, with a gradient mobile phase containing acetonitrile and 10 mM ammonium formate at pH 2.6. The flow rate was 0.8 ml min^−1 and the run-time 21 min. Detection was via UV absorption at a wavelength of 440 nm. The accuracy of the assay, reflected in relative error of measured concentration to theoretical (prepared) concentrations, was between 0.9 and 5.6% for all quality control samples.
Pharmacokinetic parameters were evaluated using WinNonLin Software®.

[1] = in vivo, iv, 145 mg m^−2, individual patients, twice weekly i.v. infusion, dose 145 mg m^−2, cycle 1inj8
[2] = in vivo, iv, 145 mg m^−2, individual patients, twice weekly i.v. infusion, dose 145 mg m^−2, cycle 2inj8
[3] = in vivo, iv, individual patients, twice weekly i.v. infusion, dose 145 → 190 mg m^−2, cycle 2inj1
[4] = in vivo, iv, individual patients, twice weekly i.v. infusion, dose 145 → 190 mg m^−2, cycle 2inj8
[5] = in vivo, iv, individual patients, twice weekly i.v. infusion, dose 145 → 190 mg m^−2, cycle 3inj2
[6] = plasma, iv, 48 mg m^−2, individual patients, twice weekly i.v. infusion, dose 48 mg m^−2, cycle 1inj2
[7] = plasma, iv, 48 mg m^−2, individual patients, twice weekly i.v. infusion, dose 48 mg m^−2, cycle 1inj8
[8] = plasma, iv, 48 mg m^−2, individual patients, twice weekly i.v. infusion, dose 48 mg m^−2, cycle 2inj8
[9] = plasma, iv, 65 mg m^−2, individual patients, twice weekly i.v. infusion, dose 65 mg m^−2, cycle 1inj2
[10] = plasma, iv, 65 mg m^−2, individual patients, twice weekly i.v. infusion, dose 65 mg m^−2, cycle 1inj3
[11] = plasma, iv, 65 mg m^−2, individual patients, twice weekly i.v. infusion, dose 65 mg m^−2, cycle 1inj8
[12] = plasma, iv, 85 mg m^−2, individual patients, twice weekly i.v. infusion, dose 85 mg m^−2, cycle 1inj2

In the case of Cc1cc(C)c(/C=C2\C(=O)Nc3ccccc32)[nH]1 [SU5416, Z-3-[(2,4-dimethylpyrrol-5-yl)methylidenyl]-2-indolinone], the “average increase in drug clearance” value (day 4 vs day 25, five of the nine patients dosed at the same level on both days) is reported as 22%, the “dose linearity of kinetics” value (dose range 48–145 mg m^−2, initial assessment and day 25) is reported as “linear kinetics” and the Vd (in vivo, iv, 48 mg m^−2, individual patients, twice weekly i.v. infusion, dose 48 mg m^−2, cycle 1inj2, read-out: Vz (observed)) is reported as 142 L. It also gave an AUC(0-t) (in vivo, iv, 48 mg m^−2, individual patients, twice weekly i.v. infusion, dose 48 mg m^−2, cycle 1inj8) of 816 ng·h/mL, a clearance (in vivo, iv, 85 mg m^−2, individual patients, twice weekly i.v. infusion, dose 85 mg m^−2, cycle 1inj8, read-out: CL (observed) (converted)) of 2520 mL/min and a half-life (in vivo, iv, 145 mg m^−2, individual patients, twice weekly i.v. infusion, dose 145 mg m^−2, cycle 1inj2) of 52.2 min. The AUC(0-t) [1] was 4430 ng·h/mL, the Cmax [1] was 3920 ng/mL and the half-life [1] was 34.2 min. It also gave an AUC(0-t) [2] of 1780 ng·h/mL, a clearance (in vivo, iv, 145 mg m^−2, individual patients, twice weekly i.v. infusion, dose 145 mg m^−2, cycle 2inj8, read-out: CL (observed) (converted)) of 3730 mL/min and a Cmax [2] of 1340 ng/mL. The half-life [2] was 43.2 min, the Vd (in vivo, iv, 145 mg m^−2, individual patients, twice weekly i.v. infusion, dose 145 mg m^−2, cycle 2inj8, read-out: Vz (observed)) was 233 L and the AUC(0-t) [3] was 6450 ng·h/mL. For the same compound, the clearance (in vivo, iv, individual patients, twice weekly i.v. infusion, dose 145 → 190 mg m^−2, cycle 2inj1, read-out: CL (observed) (converted)) was 817 mL/min, the Cmax [3] was 4000 ng/mL and the half-life [3] was 46.2 min. The Vd (in vivo, iv, individual patients, twice weekly i.v. infusion, dose 145 → 190 mg m^−2, cycle 2inj1, read-out: Vz (observed)) was 54 L, the AUC(0-t) [4] was 5040 ng·h/mL and the clearance (in vivo, iv, individual patients, twice weekly i.v. infusion, dose 145 → 190 mg m^−2, cycle 2inj8, read-out: CL (observed) (converted)) was 1320 mL/min. The Cmax [4] was 3340 ng/mL, the half-life [4] was 43.2 min and the Vd (in vivo, iv, individual patients, twice weekly i.v. infusion, dose 145 → 190 mg m^−2, cycle 2inj8, read-out: Vz (observed)) was 82 L. For the same compound, the AUC(0-t) [5] was 7170 ng·h/mL, the clearance (in vivo, iv, individual patients, twice weekly i.v. infusion, dose 145 → 190 mg m^−2, cycle 3inj2, read-out: CL (observed) (converted)) was 733 mL/min and the Cmax [5] was 6520 ng/mL. The half-life [5] was 45 min, the Vd (in vivo, iv, individual patients, twice weekly i.v. infusion, dose 145 → 190 mg m^−2, cycle 3inj2, read-out: Vz (observed)) was 48 L and the clearance (in vivo, range over the 25 evaluable patients, read-out: Plasma clearance (CL)) was 767 to 3580 mL/min. For the same compound, the Vd (in vivo, range over the 25 evaluable patients, read-out: volume of distribution (Vd)) was 39 to 215 L, the AUC (in vivo, at 145 mg m^−2) was 3720 ± 930 ng·h/mL and the AUC (in vivo, at 190 mg m^−2 in patients escalated from 145 mg m^−2 after 2 weeks) was 3610 ± 183 ng·h/mL. The Cmax [6] was 1740 ng/mL, the half-life [6] was 32.4 min and the Vd (plasma, iv, 48 mg m^−2, individual patients, twice weekly i.v. infusion, dose 48 mg m^−2, cycle 1inj2, read-out: Vz (observed)) was 69 L. It also gave an AUC(0-t) [7] of 630 ng·h/mL, a clearance (plasma, iv, 48 mg m^−2, individual patients, twice weekly i.v. infusion, dose 48 mg m^−2, cycle 1inj8, read-out: CL (observed) (converted)) of 2080 mL/min and a Cmax [7] of 2060 ng/mL. It also gave a half-life [7] of 36.6 min, a Vd (plasma, iv, 48 mg m^−2, individual patients, twice weekly i.v. infusion, dose 48 mg m^−2, cycle 1inj8, read-out: Vz (observed)) of 109 L and an AUC(0-t) [8] of 498 ng·h/mL. The clearance (plasma, iv, 48 mg m^−2, individual patients, twice weekly i.v. infusion, dose 48 mg m^−2, cycle 2inj8, read-out: CL (observed) (converted)) was 2630 mL/min, the Cmax [8] was 1630 ng/mL and the half-life [8] was 34.2 min. The Vd (plasma, iv, 48 mg m^−2, individual patients, twice weekly i.v. infusion, dose 48 mg m^−2, cycle 2inj8, read-out: Vz (observed)) was 131 L, the AUC(0-t) [9] was 1500 ng·h/mL and the clearance (plasma, iv, 65 mg m^−2, individual patients, twice weekly i.v. infusion, dose 65 mg m^−2, cycle 1inj2, read-out: CL (observed) (converted)) was 1070 mL/min. For the same compound, the Cmax [9] was 4370 ng/mL, the half-life [9] was 27 min and the AUC(0-t) [10] was 566 ng·h/mL. The clearance (plasma, iv, 65 mg m^−2, individual patients, twice weekly i.v. infusion, dose 65 mg m^−2, cycle 1inj3, read-out: CL (observed) (converted)) was 3170 mL/min, the Cmax [10] was 2070 ng/mL and the half-life [10] was 12 min. For the same compound, the Vd (plasma, iv, 65 mg m^−2, individual patients, twice weekly i.v. infusion, dose 65 mg m^−2, cycle 1inj3, read-out: Vz (observed)) was 55 L, the AUC(0-t) [11] was 1310 ng·h/mL and the clearance (plasma, iv, 65 mg m^−2, individual patients, twice weekly i.v. infusion, dose 65 mg m^−2, cycle 1inj8, read-out: CL (observed) (converted)) was 1230 mL/min. The Cmax [11] was 4100 ng/mL, the half-life [11] was 43.8 min and the Vd (plasma, iv, 65 mg m^−2, individual patients, twice weekly i.v. infusion, dose 65 mg m^−2, cycle 1inj8, read-out: Vz (observed)) was 78 L. The AUC(0-t) [12] was 1810 ng·h/mL, the clearance (plasma, iv, 85 mg m^−2, individual patients, twice weekly i.v. infusion, dose 85 mg m^−2, cycle 1inj2, read-out: CL (observed) (converted)) was 1320 mL/min and the Cmax [12] was 2340 ng/mL. For the same compound, the half-life [12] was 23.4 min.
